For data set [1] the following is noted: known drugs, data from ref. [2]; cited from earlier work.
Data set [2] concerns outbred mice. Nature of the data set: hot plate test (thermal irritation). In kind it is in vivo. The conditions noted are these: 0.5 mg/kg, intragastric.
Data set [3] concerns white outbred mice. Nature of the data set: acute toxicity, single intragastric administration, Kerber method.
The test system of data set [4] is outbred mice. Nature of the data set: acetic acid induced writhing test (visceral pain model). Type of data set: in vivo. The method, then:
(§1) Analgesic activity of compounds of general formula 1 was studied in the model of visceral pain <<acetic acid induced writhing test>> and thermal irritation test <<hot plate>> in white outbred mice of body mass 20-22 g in groups of 8 animals each after single administration in 1÷20 mg/kg doses.
Acetic acid induced writhing test was performed by intraperitoneal administration of 0.1 ml of 0.75% acetic acid to an animal. Activity was assessed by the quantity of writhing movements during 3 min.
Tests were carried out in outbred male mice with body mass 22-25 g. Experimental groups were formed, with 8 animals in each. <<Acetic writhes>> were produced by intraperitoneal administration of 0.75% acetic acid, 0.1 ml per animal. Test compounds were administered once intragastrically an hour before acetic acid administration. Animals that received only acetic acid were used as control. Activity was assessed by the quantity of writhes during 3 min.

Data set [5] relates to outbred mice. The data set is described as follows: hot plate test (thermal irritation). Type of data set: in vivo. On the procedure:
as §1
Hot plate test characterizes thermal stimulus. The animals were placed on a copper plate, T=54° C. The effect was assessed by the duration of stay of the animal on the hot plate before the first vocalization.
Tests were carried out in outbred male mice of body mass 22-25 g. Experimental groups were formed, with 8 animals in each. The animals were placed on a copper hot plate, T=54° C. The effects were assessed by the duration of animal stay on the hot plate before the first <>, in seconds.
Test compounds were administered once intragastrically an hour before the test. Control animals received the corresponding solvent.

Data set [6] has as its system outbred mice. Nature of the data set: acetic acid induced writhing test (visceral pain model). The conditions noted are these: 0.5 mg/kg, intragastric. Type of data set: in vivo.
The conditions of data set [7]: known drugs, data from ref. [2]; cited from earlier work. The source holds these as a separate data set.
Where [8] appears, read: 1 mg/kg dose, compared with sodium diclofenac 10 mg/kg.
Setting [9] is: 10 mg/kg, intragastric, (control − exp)/control · 100%.
The mark [10] stands for this setting: 10 mg/kg, once intragastrically 1 h before 0.75% acetic acid i.p., writhes during 3 min.
Setting [11] is: 10 mg/kg, intragastric, (exp − control)/control · 100%.
Setting [12] is: 10 mg/kg, once intragastrically 1 h before test, plate 54° C, time to first vocalization.

Marks after values point to notes of the source that are not given here.

With `CC(=O)Oc1ccccc1C(=O)O` [Acetylsalicylic acid], in data set [1], the “ED50 in acetic acid induced writhing test” value (“ED50” for short) is listed as 155 mg/kg.
As for `CC1CCC2C(C1)OC(c1cccs1)CC2(C)O` (stereo not shown) [Compound 1a, 4,7-dimethyl-2-(thiophene-2-yl)octahydro-2H-chromene-4-ol], the “Hot plate, sec. (Agent)” value in data set [2] turned out to be 20.3 ± 2.2 s; in data set [5] (1 mg/kg, intragastric), 16.5 ± 1.9 s; in data set [5] (5 mg/kg, intragastric), 16.3 ± 1.6 s; in data set [5] (setting [12]) it was 13.1 ± 1.2 s; in data set [5] (20 mg/kg, intragastric), 16.0 ± 2.6 s. For the same molecule, the “Protection, %” value in data set [2] was found to be 28%; in data set [5] (1 mg/kg, intragastric), 59%; in data set [5] (5 mg/kg, intragastric), 57%; in data set [5] (setting [11]), 34%; in data set [5] (20 mg/kg, intragastric) it was 50%. For the same molecule, the “acute toxicity classification (in words)” value in data set [3] is listed as “moderately toxic”. The “analgesic activity in acetic acid induced writhing test (in words)” value in data set [4] (setting [8]) is “potent analgesic activity”; in data set [4] (10 mg/kg dose), “more effective than sodium diclofenac”. The “Pain reduction, %” value in data set [4] (1 mg/kg, intragastric) came out at 71%; in data set [4] (5 mg/kg, intragastric), 42%; in data set [4] (setting [9]), 55%; in data set [4] (20 mg/kg, intragastric), 25%; in data set [6] it was 27%. Moreover, the “Writhes, quantity (Agent)” value is on record as 2.4 ± 0.8 in data set [4] (1 mg/kg, intragastric); 4.9 ± 1.0 in data set [4] (5 mg/kg, intragastric); 4.3 ± 1.1 in data set [4] (setting [10]); 8.3 ± 0.5 in data set [4] (20 mg/kg, intragastric); 7.4 ± 1.3 in data set [6]. Moreover, the entries for the “analgesic activity in hot plate test (in words)” value in data set [5] (setting [8]) and in data set [5] (10 mg/kg dose) were “potent analgesic activity” and “Reliable analgesic activity”, respectively.
With `Cc1ccsc1C1CC(C)(O)C2CCC(C)CC2O1` (stereo not shown) [Compound 1b, 4,7-dimethyl-2-(3-methylthiophene-2-yl)octahydro-2H-chromene-4-ol], the “Pain reduction, %” value in data set [4] (setting [9]) is on record as 36*** %. Besides, the “Writhes, quantity (Agent)” value in data set [4] (setting [10]) was found to be 7.0 ± 0.6. In addition, the “Hot plate, sec. (Agent)” value in data set [5] (setting [12]) was 12.8 ± 1.7 s.
For `Cc1ccc(C2CC(C)(O)C3CCC(C)CC3O2)s1` (stereo not shown) [Compound 1c, 4,7-dimethyl-2-(5-methylthiophene-2-yl)octahydro-2H-chromene-4-ol], in that order: 39*** %, 6.6 ± 0.5 and 17.4 ± 2.4 s.
Take `CC1CCC2C(C1)OC(c1cc(Br)cs1)CC2(C)O` (stereo not shown) [Compound 1d, 4,7-dimethyl-2-(4-bromothiophene-2-yl)octahydro-2H-chromene-4-ol]: in data set [4] (10 mg/kg dose), the “analgesic activity in acetic acid induced writhing test (in words)” value is given as “more effective than sodium diclofenac”. Moreover, the “Pain reduction, %” value in data set [4] (setting [9]) was 63** %. In addition, the “Writhes, quantity (Agent)” value in data set [4] (setting [10]) is on record as 3.6 ± 1.5. In addition, the “Protection, %” value in data set [5] (setting [11]) amounted to 39%. The “Hot plate, sec. (Agent)” value in data set [5] (setting [12]) was found to be 13.6 ± 1.7 s.
Consider `CC1CCC2C(C1)OC(c1ccc(Br)s1)CC2(C)O` (stereo not shown) [Compound 1e, 4,7-dimethyl-2-(5-bromothiophene-2-yl)octahydro-2H-chromene-4-ol], for which the “Pain reduction, %” value in data set [4] (setting [9]) was 34* %. Moreover, the “Writhes, quantity (Agent)” value in data set [4] (setting [10]) came out at 6.3 ± 1.2. The “Protection, %” value in data set [5] (setting [11]) was 18%. In data set [5] (setting [12]), the “Hot plate, sec. (Agent)” value is 11.6 ± 1.0 s.
Consider `CC1CCC2C(C1)OC(c1ccc([N+](=O)[O-])s1)CC2(C)O` (stereo not shown) [Compound 1f, 4,7-dimethyl-2-(5-nitrothiophene-2-yl)octahydro-2H-chromene-4-ol], for which, in data set [4] (setting [9]), the “Pain reduction, %” value is listed as 32* %. Also, the “Writhes, quantity (Agent)” value in data set [4] (setting [10]) is on record as 7.5 ± 1.2. Also, the “Protection, %” value in data set [5] (setting [11]) turned out to be 20%. For the same molecule, the “Hot plate, sec. (Agent)” value in data set [5] (setting [12]) worked out at 14.5 ± 1.6 s.
`Cc1c(N(C)CS(=O)(=O)O)c(=O)n(-c2ccccc2)n1C` [Metamizole]: the “ED50” value in data set [1] is recorded as 55 mg/kg. For the same molecule, in data set [7], the “LD50 (acute toxicity)” value is on record as 3300 mg/kg.
On to `O=C(O)Cc1ccccc1Nc1c(Cl)cccc1Cl` [Sodium diclofenac, reference compound], for which the “ED50” value in data set [1] is 5 mg/kg. In addition, in data set [4] (setting [9]), the “Pain reduction, %” value is reported as 50*** %. The “Writhes, quantity (Agent)” value in data set [4] (setting [10]) turned out to be 5.0 ± 1.1. In data set [5] (setting [11]), the “Protection, %” value is 62** %. For the same molecule, in data set [5] (setting [12]), the “Hot plate, sec. (Agent)” value is 15.6 ± 2.4 s.

Values taken from patent US9999613B2, “2H-chromene derivatives as analgesic agents” (OBSHESTVO S OGRANICHENNOI OTVETSVENNOSTJU “LEOFORS”, priority 2014, dated 2018).
